Source: ChEMBL document CHEMBL4052702 (Bioorg Med Chem Lett, 2017)

Tests used:
[1] = Inhibition of HDAC in human HeLa-S3 cells lysates pre-incubated for 15 mins before HDAC-Glo I/II substrate addition and measured after 30 mins post substrate addition; assay type: cell-based
Histone deacetylase 1 [2] = biological target: T1, Histone deacetylase 1 (Homo sapiens, UniProt Q13547); experiment: Inhibition of HDAC1 (unknown origin) by ELISA-based assay
Histone deacetylase 2 [3] = biological target: T2, Histone deacetylase 2 (Homo sapiens, UniProt Q92769); experiment: Inhibition of HDAC2 (unknown origin) by ELISA-based assay
T2 sequence (Q92769 whole entry): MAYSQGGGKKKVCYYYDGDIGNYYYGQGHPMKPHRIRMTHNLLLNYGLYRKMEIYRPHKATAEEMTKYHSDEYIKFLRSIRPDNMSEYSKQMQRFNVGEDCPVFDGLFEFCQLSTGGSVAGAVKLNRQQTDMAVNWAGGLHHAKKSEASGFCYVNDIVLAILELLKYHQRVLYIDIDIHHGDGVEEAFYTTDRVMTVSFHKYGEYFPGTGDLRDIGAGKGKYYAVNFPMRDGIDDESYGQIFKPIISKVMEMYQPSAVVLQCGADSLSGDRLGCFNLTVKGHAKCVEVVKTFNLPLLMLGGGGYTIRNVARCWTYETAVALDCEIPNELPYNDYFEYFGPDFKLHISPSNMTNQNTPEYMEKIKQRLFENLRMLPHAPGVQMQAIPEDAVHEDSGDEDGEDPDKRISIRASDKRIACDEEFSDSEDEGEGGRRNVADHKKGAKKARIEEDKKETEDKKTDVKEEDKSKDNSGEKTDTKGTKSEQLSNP

Histone deacetylase 3 [4] = biological target: T3, Histone deacetylase 3 (Homo sapiens, UniProt O15379); experiment: Inhibition of HDAC3 (unknown origin) by ELISA-based assay
T3 sequence (O15379 whole entry): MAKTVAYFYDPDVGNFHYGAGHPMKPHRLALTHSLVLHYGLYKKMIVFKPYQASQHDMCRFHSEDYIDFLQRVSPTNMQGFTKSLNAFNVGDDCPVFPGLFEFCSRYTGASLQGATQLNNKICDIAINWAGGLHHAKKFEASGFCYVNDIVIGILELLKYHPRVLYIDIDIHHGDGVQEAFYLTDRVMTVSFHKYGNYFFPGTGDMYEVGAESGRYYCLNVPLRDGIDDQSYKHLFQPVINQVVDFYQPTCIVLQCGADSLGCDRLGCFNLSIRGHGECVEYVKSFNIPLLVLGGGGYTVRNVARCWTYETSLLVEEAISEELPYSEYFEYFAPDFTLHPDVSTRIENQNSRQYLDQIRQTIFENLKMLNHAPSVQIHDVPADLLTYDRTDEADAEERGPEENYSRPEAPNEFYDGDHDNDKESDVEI

[5] = biological target: T4, Protein deacetylase HDAC6 (Homo sapiens, UniProt Q9UBN7); experiment: Inhibition of HDAC6 (unknown origin) by ELISA-based assay
T4 sequence (Q9UBN7 whole entry): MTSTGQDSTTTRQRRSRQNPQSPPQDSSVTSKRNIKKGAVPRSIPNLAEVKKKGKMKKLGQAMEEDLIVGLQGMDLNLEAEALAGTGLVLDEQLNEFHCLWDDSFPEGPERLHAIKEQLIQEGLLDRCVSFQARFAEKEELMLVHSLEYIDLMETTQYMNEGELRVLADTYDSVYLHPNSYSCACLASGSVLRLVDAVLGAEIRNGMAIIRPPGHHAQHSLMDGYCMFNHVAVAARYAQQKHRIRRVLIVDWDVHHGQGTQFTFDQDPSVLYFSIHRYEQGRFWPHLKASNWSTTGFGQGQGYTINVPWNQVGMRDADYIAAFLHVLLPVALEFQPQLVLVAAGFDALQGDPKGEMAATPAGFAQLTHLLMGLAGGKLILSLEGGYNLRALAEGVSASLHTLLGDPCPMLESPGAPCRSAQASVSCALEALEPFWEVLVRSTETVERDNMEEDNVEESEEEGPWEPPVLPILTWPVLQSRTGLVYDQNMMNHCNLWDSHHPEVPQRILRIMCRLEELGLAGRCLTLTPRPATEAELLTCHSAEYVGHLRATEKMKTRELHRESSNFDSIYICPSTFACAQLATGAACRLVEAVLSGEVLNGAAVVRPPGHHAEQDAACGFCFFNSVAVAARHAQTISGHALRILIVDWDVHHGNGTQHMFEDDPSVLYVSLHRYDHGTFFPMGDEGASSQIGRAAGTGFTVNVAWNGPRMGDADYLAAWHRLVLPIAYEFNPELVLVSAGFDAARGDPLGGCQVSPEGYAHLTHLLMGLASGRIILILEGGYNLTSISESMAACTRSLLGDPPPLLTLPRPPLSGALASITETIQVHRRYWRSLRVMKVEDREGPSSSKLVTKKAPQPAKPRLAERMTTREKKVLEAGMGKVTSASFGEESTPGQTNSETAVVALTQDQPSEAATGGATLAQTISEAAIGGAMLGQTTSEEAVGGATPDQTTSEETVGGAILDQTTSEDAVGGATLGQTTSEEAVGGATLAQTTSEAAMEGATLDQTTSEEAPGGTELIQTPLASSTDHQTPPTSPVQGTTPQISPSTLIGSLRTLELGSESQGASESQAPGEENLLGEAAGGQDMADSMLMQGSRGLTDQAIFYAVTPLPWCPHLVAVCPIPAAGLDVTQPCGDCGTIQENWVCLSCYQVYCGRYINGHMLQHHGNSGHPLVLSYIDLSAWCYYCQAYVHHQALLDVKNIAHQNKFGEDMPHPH

Histone deacetylase 8 = biological target: T5, Histone deacetylase 8 (Homo sapiens, UniProt Q9BY41); experiment: Inhibition of HDAC8 (unknown origin) by ELISA-based assay
T5 sequence (Q9BY41 whole entry): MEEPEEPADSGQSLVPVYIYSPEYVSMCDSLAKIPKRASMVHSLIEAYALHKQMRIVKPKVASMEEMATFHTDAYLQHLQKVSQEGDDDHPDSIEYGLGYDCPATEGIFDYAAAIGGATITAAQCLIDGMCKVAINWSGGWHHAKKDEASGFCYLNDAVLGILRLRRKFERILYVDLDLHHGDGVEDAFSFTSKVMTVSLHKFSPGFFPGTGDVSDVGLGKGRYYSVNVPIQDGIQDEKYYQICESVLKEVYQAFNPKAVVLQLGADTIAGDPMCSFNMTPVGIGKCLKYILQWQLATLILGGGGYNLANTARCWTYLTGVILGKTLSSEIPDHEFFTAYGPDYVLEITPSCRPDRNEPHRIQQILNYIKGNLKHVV

Histone deacetylase 1 [6] = biological target: T1, Histone deacetylase 1; experiment: Inhibition of HDAC1 (unknown origin) assessed as remaining enzyme activity at 2 x 10^-6 M by ELISA-based assay
Histone deacetylase 1 [7] = biological target: T1, Histone deacetylase 1; experiment: Inhibition of HDAC1 (unknown origin) assessed as remaining enzyme activity at 5 x 10^-7 M by ELISA-based assay
Histone deacetylase 2 [8] = biological target: T2, Histone deacetylase 2; experiment: Inhibition of HDAC2 (unknown origin) assessed as remaining enzyme activity at 4 x 10^-6 M by ELISA-based assay
Histone deacetylase 2 [9] = biological target: T2, Histone deacetylase 2; experiment: Inhibition of HDAC2 (unknown origin) assessed as remaining enzyme activity at 2 x 10^-6 M by ELISA-based assay
Histone deacetylase 3 [10] = biological target: T3, Histone deacetylase 3; experiment: Inhibition of HDAC3 (unknown origin) assessed as remaining enzyme activity at 4 x 10^-6 M by ELISA-based assay
Histone deacetylase 3 [11] = biological target: T3, Histone deacetylase 3; experiment: Inhibition of HDAC3 (unknown origin) assessed as remaining enzyme activity at 2 x 10^-6 M by ELISA-based assay
[12] = biological target: T6, Protein deacetylase HDAC6 (Homo sapiens) (UniProt Q9UBN7); experiment: Inhibition of HDAC6 (unknown origin) assessed as remaining enzyme activity at 4 x 10^-7 M by ELISA-based assay
T6 sequence (whole entry): T4 sequence (Q9UBN7 whole entry)

[13] = biological target: T6, Protein deacetylase HDAC6 (Homo sapiens); experiment: Inhibition of HDAC6 (unknown origin) assessed as remaining enzyme activity at 2 x 10^-7 M by ELISA-based assay
[14] = biological target: T6, Protein deacetylase HDAC6 (Homo sapiens); experiment: Inhibition of HDAC6 (unknown origin) assessed as remaining enzyme activity at 1 x 10^-7 M by ELISA-based assay
[15] = biological target: T6, Protein deacetylase HDAC6 (Homo sapiens); experiment: Inhibition of HDAC6 (unknown origin) assessed as remaining enzyme activity at 5 x 10^-8 M by ELISA-based assay
[16] = biological target: T7, Histone deacetylase 8 (Homo sapiens) (UniProt Q9BY41); experiment: Inhibition of HDAC8 (unknown origin) assessed as remaining enzyme activity at 1.6 x 10^-6 M by ELISA-based assay
T7 sequence (whole entry): T5 sequence (Q9BY41 whole entry)

[17] = biological target: T7, Histone deacetylase 8 (Homo sapiens); experiment: Inhibition of HDAC8 (unknown origin) assessed as remaining enzyme activity at 8 x 10^-7 M by ELISA-based assay
[18] = biological target: T7, Histone deacetylase 8 (Homo sapiens); experiment: Inhibition of HDAC8 (unknown origin) assessed as remaining enzyme activity at 4 x 10^-7 M by ELISA-based assay
[19] = biological target: T7, Histone deacetylase 8 (Homo sapiens); experiment: Inhibition of HDAC8 (unknown origin) assessed as remaining enzyme activity at 2 x 10^-7 M by ELISA-based assay
[20] = biological target: T7, Histone deacetylase 8 (Homo sapiens); experiment: Inhibition of HDAC8 (unknown origin) assessed as remaining enzyme activity at 1 x 10^-7 M by ELISA-based assay
Jurkat [21] = experiment: cells; assay type: functional; conditions: Homo sapiens, 44 h
Jurkat [22] = experiment: cells; assay type: functional; conditions: Homo sapiens, 44 h; remark: listed apart in the source

T1 sequence (Q13547 whole entry): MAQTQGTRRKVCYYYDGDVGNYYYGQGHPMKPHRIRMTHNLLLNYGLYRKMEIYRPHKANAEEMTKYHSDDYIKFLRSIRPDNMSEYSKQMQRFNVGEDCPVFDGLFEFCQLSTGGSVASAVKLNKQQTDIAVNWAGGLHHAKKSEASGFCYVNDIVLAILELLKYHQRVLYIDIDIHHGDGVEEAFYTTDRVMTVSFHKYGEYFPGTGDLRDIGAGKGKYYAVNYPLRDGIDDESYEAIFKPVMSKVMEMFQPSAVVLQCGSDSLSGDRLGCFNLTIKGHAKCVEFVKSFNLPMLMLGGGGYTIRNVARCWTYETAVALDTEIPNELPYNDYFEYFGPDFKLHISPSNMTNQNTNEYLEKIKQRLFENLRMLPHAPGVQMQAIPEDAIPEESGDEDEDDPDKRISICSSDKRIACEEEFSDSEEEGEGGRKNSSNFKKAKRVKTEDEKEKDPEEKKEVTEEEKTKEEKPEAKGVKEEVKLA

IC50 [1] [nM] | IC50 (Histone deacetylase 1 [2]) [nM] | IC50 (Histone deacetylase 2 [3]) [nM] | IC50 (Histone deacetylase 3 [4]) [nM] | IC50 [5] [nM] | IC50 (Histone deacetylase 8) [nM] | Activity (Histone deacetylase 1 [6]) [%] | Activity (Histone deacetylase 1 [7]) [%] | Activity (Histone deacetylase 2 [8]) [%] | Activity (Histone deacetylase 2 [9]) [%] | Activity (Histone deacetylase 3 [10]) [%] | Activity (Histone deacetylase 3 [11]) [%] | Activity [12] [%] | Activity [13] [%] | Activity [14] [%] | Activity [15] [%] | Activity [16] [%] | Activity [17] [%] | Activity [18] [%] | Activity [19] [%] | Structure (SMILES) | further results
6500 | 2100 | 2500 | 2900 | 410 | 420 | 54 | 77 | 41 | 57 | 39 | 67 | 54 | 66 | 69 | 82 | 21 | 35 | 51 | 70 | CCCCCCC(CCCC(=O)NO)CCC(=O)Nc1ccccc1 (centres undefined) | Activity [20]: 78%; viability at 1 µM (Jurkat [21]): 101%; viability at 10 µM (Jurkat [22]): 24%
5000 | 1100 | 1300 | 1600 | 320 | 430 | 37 | 68 | 25 | 38 | 27 | 44 | 48 | 60 | 70 | 90 | 22 | 35 | 50 | 69 | CCCCC(CCCC(=O)NO)CCC(=O)Nc1ccccc1 (centres undefined) | Activity [20]: 83%; viability at 1 µM (Jurkat [21]): 67%; viability at 10 µM (Jurkat [22]): 39%
6200 | 2900 | 3500 | 5800 | 270 | 380 | 54 | 84 | 49 | 62 | 53 | 85 | 43 | 54 | 76 | 83 | 19 | 33 | 47 | 65 | O=C(CCCC(CCC(=O)Nc1ccccc1)Cc1ccccc1)NO (centres undefined) | Activity [20]: 82%; viability at 1 µM (Jurkat [21]): 71%; viability at 10 µM (Jurkat [22]): 50%
